Data published in the supplement of paper PMC10627819.

What was measured:
Assay in all cases: fitness (endpoint OD595 vs no drug) (fraction); higher = more growth
S. aureus Newman = conditions: main component drawn
Summary of the method: (§1)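 Cultures at OD595 0.01 were dispensed into 384-well plates in TSB, LB Lennox or CY and incubated at 37 °C. Every 30 min for 14 h, OD595 was read and corrected by the first reading. Fitness is the optical density at entry into stationary phase relative to the robust mean of no-drug control wells, capped at 1.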

B. subtilis 168 = conditions: main component drawn
Summary of the method: as §1

S. aureus DSM 20231 = system: S. aureus DSM 20231
Summary of the method: as §1

S. pneumoniae D39V = system: S. pneumoniae D39V
Summary of the method: as §1

CC[C@H](C)[C@H](N)C1=N[C@H](C(=O)N[C@@H](CC(C)C)C(=O)N[C@H](CCC(=O)O)C(=O)N[C@H](C(=O)N[C@H]2CCCCNC(=O)[C@H](CC(N)=O)NC(=O)[C@@H](CC(=O)O)NC(=O)[C@H](Cc3cnc[nH]3)NC(=O)[C@@H](Cc3ccccc3)NC(=O)[C@H]([C@@H](C)CC)NC(=O)[C@@H](CCCN)NC2=O)[C@@H](C)CC)CS1 [Bacitracin] + CC1(C)S[C@@H]2[C@H](NC(=O)Cc3ccccc3)C(=O)N2[C@H]1C(=O)O [Penicillin G]
fitness, S. aureus Newman
Conditions | first compound 18.75 µg/mL | first compound 37.5 µg/mL | first compound 75 µg/mL
partner 0.0195 µg/mL | 0.642 | 0.35 | 0.018
partner 0.039 µg/mL | 0.698 | 0.2 | 0.0199
partner 0.078 µg/mL | 0.69 | – | 0.0358

CC[C@H](C)[C@H](N)C1=N[C@H](C(=O)N[C@@H](CC(C)C)C(=O)N[C@H](CCC(=O)O)C(=O)N[C@H](C(=O)N[C@H]2CCCCNC(=O)[C@H](CC(N)=O)NC(=O)[C@@H](CC(=O)O)NC(=O)[C@H](Cc3cnc[nH]3)NC(=O)[C@@H](Cc3ccccc3)NC(=O)[C@H]([C@@H](C)CC)NC(=O)[C@@H](CCCN)NC2=O)[C@@H](C)CC)CS1 [Bacitracin] + CN(C)[C@@H]1C(O)=C(C(N)=O)C(=O)[C@@]2(O)C(O)=C3C(=O)c4c(O)ccc(Cl)c4[C@@](C)(O)[C@H]3C[C@@H]12 [Chlortetracycline]
fitness, B. subtilis 168
Conditions | first compound 37.5 µg/mL | first compound 75 µg/mL | first compound 150 µg/mL
partner 0.0475 µg/mL | 0.865 | 0.856 | 0.723
partner 0.095 µg/mL | 0.753 | 0.68 | 0.497
partner 0.19 µg/mL | – | – | 0.0687

CC[C@H](C)[C@H](N)C1=N[C@H](C(=O)N[C@@H](CC(C)C)C(=O)N[C@H](CCC(=O)O)C(=O)N[C@H](C(=O)N[C@H]2CCCCNC(=O)[C@H](CC(N)=O)NC(=O)[C@@H](CC(=O)O)NC(=O)[C@H](Cc3cnc[nH]3)NC(=O)[C@@H](Cc3ccccc3)NC(=O)[C@H]([C@@H](C)CC)NC(=O)[C@@H](CCCN)NC2=O)[C@@H](C)CC)CS1 [Bacitracin] + CO[C@@]12[C@H](COC(N)=O)C3=C(C(=O)C(C)=C(N)C3=O)N1C[C@@H]1N[C@@H]12 [Mitomycin C]
fitness, S. aureus Newman
Conditions | first compound 18.75 µg/mL | first compound 37.5 µg/mL | first compound 75 µg/mL
partner 0.0156 µg/mL | 0.56 | – | 0.0457
partner 0.0312 µg/mL | 0.419 | 0.0317 | 0.0152
partner 0.0625 µg/mL | 0.229 | 0.0144 | 0

CC[C@H](C)[C@H](N)C1=N[C@H](C(=O)N[C@@H](CC(C)C)C(=O)N[C@H](CCC(=O)O)C(=O)N[C@H](C(=O)N[C@H]2CCCCNC(=O)[C@H](CC(N)=O)NC(=O)[C@@H](CC(=O)O)NC(=O)[C@H](Cc3cnc[nH]3)NC(=O)[C@@H](Cc3ccccc3)NC(=O)[C@H]([C@@H](C)CC)NC(=O)[C@@H](CCCN)NC2=O)[C@@H](C)CC)CS1 [Bacitracin] + N[C@@H]1CONC1=O [Cycloserine D]
fitness
Conditions | first compound 18.75 µg/mL | first compound 37.5 µg/mL | first compound 75 µg/mL | first compound 150 µg/mL
B. subtilis 168, partner 0.125 µg/mL | – | 0.893 | 0.89 | 0.737
B. subtilis 168, partner 0.25 µg/mL | – | 0.894 | 0.898 | –
B. subtilis 168, partner 0.5 µg/mL | – | 0.858 | 0.858 | –
S. aureus Newman, partner 0.375 µg/mL | 0.761 | 0.282 | 0.0299 | –
S. aureus Newman, partner 0.75 µg/mL | 0.761 | 0.28 | 0.0202 | –
S. aureus Newman, partner 1.5 µg/mL | 0.74 | 0.202 | 0.0116 | –

CC[C@H](C)[C@H](N)C1=N[C@H](C(=O)N[C@@H](CC(C)C)C(=O)N[C@H](CCC(=O)O)C(=O)N[C@H](C(=O)N[C@H]2CCCCNC(=O)[C@H](CC(N)=O)NC(=O)[C@@H](CC(=O)O)NC(=O)[C@H](Cc3cnc[nH]3)NC(=O)[C@@H](Cc3ccccc3)NC(=O)[C@H]([C@@H](C)CC)NC(=O)[C@@H](CCCN)NC2=O)[C@@H](C)CC)CS1 [Bacitracin] + O=C(O)[C@H]1/C(=C/CO)O[C@@H]2CC(=O)N21 [Clavulanic acid]
fitness, B. subtilis 168
Conditions | partner 1.5 µg/mL | partner 3 µg/mL | partner 6 µg/mL
first compound 37.5 µg/mL | 0.906 | 0.86 | 0.795
first compound 75 µg/mL | 0.915 | 0.838 | 0.734

fitness, S. aureus Newman, one replicate
Conditions | first compound 18.75 µg/mL | first compound 37.5 µg/mL | first compound 75 µg/mL
partner 0.03125 µg/mL | 0.682 | 0.298 | 0.0064
partner 0.0625 µg/mL | 0.673 | 0.251 | 0.0152
partner 0.125 µg/mL | 0.686 | 0.219 | 0.0264

CC(=O)NC[C@H]1CN(c2ccc(N3CCOCC3)c(F)c2)C(=O)O1 [Linezolid] + CO[C@@]12[C@H](COC(N)=O)C3=C(C(=O)C(C)=C(N)C3=O)N1C[C@@H]1N[C@@H]12 [Mitomycin C]
Conditions | fitness
S. aureus DSM 20231, first compound 0.125 µg/mL, partner 0.0156 µg/mL | 0.681
S. aureus DSM 20231, first compound 0.125 µg/mL, partner 0.0312 µg/mL | 0.68
S. aureus DSM 20231, first compound 0.125 µg/mL, partner 0.0625 µg/mL | 0.531
S. aureus DSM 20231, first compound 0.25 µg/mL, partner 0.0156 µg/mL | 0.466
S. aureus DSM 20231, first compound 0.25 µg/mL, partner 0.0312 µg/mL | 0.458
S. aureus DSM 20231, first compound 0.25 µg/mL, partner 0.0625 µg/mL | 0.296
S. aureus DSM 20231, first compound 0.5 µg/mL, partner 0.0156 µg/mL | 0.141
S. aureus DSM 20231, first compound 0.5 µg/mL, partner 0.0312 µg/mL | 0.105
S. aureus DSM 20231, first compound 0.5 µg/mL, partner 0.0625 µg/mL | 0.0726
S. pneumoniae D39V, first compound 0.105 µg/mL, partner 0.002 µg/mL | 0.745
S. pneumoniae D39V, first compound 0.105 µg/mL, partner 0.004 µg/mL | 0.669
S. pneumoniae D39V, first compound 0.105 µg/mL, partner 0.008 µg/mL | 0.524
S. pneumoniae D39V, first compound 0.2 µg/mL, partner 0.001075 µg/mL | 0.745
S. pneumoniae D39V, first compound 0.2 µg/mL, partner 0.00215 µg/mL | 0.733
S. pneumoniae D39V, first compound 0.2 µg/mL, partner 0.0043 µg/mL | 0.634
S. pneumoniae D39V, first compound 0.21 µg/mL, partner 0.002 µg/mL | 0.563
S. pneumoniae D39V, first compound 0.21 µg/mL, partner 0.004 µg/mL | 0.563
S. pneumoniae D39V, first compound 0.21 µg/mL, partner 0.008 µg/mL | 0.397
S. pneumoniae D39V, first compound 0.4 µg/mL, partner 0.001075 µg/mL | 0.618
S. pneumoniae D39V, first compound 0.4 µg/mL, partner 0.00215 µg/mL | 0.626
S. pneumoniae D39V, first compound 0.4 µg/mL, partner 0.0043 µg/mL | 0.366
S. pneumoniae D39V, first compound 0.42 µg/mL, partner 0.002 µg/mL | 0.414
S. pneumoniae D39V, first compound 0.42 µg/mL, partner 0.004 µg/mL | 0.389
S. pneumoniae D39V, first compound 0.42 µg/mL, partner 0.008 µg/mL | 0.23
S. pneumoniae D39V, first compound 0.8 µg/mL, partner 0.001075 µg/mL | 0.316
S. pneumoniae D39V, first compound 0.8 µg/mL, partner 0.00215 µg/mL | 0.323
S. pneumoniae D39V, first compound 0.8 µg/mL, partner 0.0043 µg/mL | 0.258

S. aureus DSM 20231, first compound 1 µg/mL, one replicate
Conditions | fitness
partner 0.0156 µg/mL | 0.0176
partner 0.0312 µg/mL | 0.0107
partner 0.0625 µg/mL | 0.0169
